Test results as given in paper PMC4085599, “Preliminary Studies on Validation of Calu-3 Cell Line as a Model for Screening Respiratory Mucosa Irritation and Toxicity” (Pharmaceutics, 2014).
Read-outs that look alike come from different tables or passages of the source.

What was measured:
[1] = design: method as in earlier work; details: ref [19],[20]; cited from earlier work
Calu-3 cells = assay: MTT cell viability assay on Calu-3 cells after exposure to test solutions; assay type: cell-based, Human; details: for Calu-3 model prediction (irritant if viability 50% and below) compared with European Union class: ECVAM protocol; for Calu-3 %Viability ± SD: 60 min incubation, MTT, relative to negative control, n = 4
Description: (§1) The Calu-3 cells were used at passages 5–10. They were cultured in 96-well plates (Fisher Scientific) in 1:1 DMEM/F-12 supplemented with 10% FBS, 1% Glutamax®, 100 U/mL penicillin, and […] streptomycin using our previously described method. The tissue culture medium was changed every two days.
(§2) Irritant selection, concentration and exposure time were based on mucociliary clearance time and published work in which the compounds were used. […] In order to provide a basis for comparison with other published work using other models three concentrations of the chemicals were selected (0.2%, 0.4% and 1.0%). To initiate the experiments, the cells were washed 3 times with PBS and allowed to equilibrate in 100 µL of buffered DMEM/F-12 (without phenol red) for 30 min. […] Cells were observed under the microscope for detachment before discarding the test solutions. Subsequently, the effect of the test compounds on the cells was determined using MTT assay.
(§3) Cell viability screening was based on cellular mitochondrial dehydrogenase (MDH) activity, measured by MTT reduction and conversion to blue formazan salt that was quantified after extraction from cells. MTT was used for predicting respiratory irritation because several studies have shown correlation between reduction in cell viability, decrease in epithelial electrical resistance and increases in biomarkers such as IL-1α and IL-1β. Cells grown in 96-well plates were used for the studies. After exposure of the cells to the solution of test compounds, the solutions were discarded and 100 μL of MTT (5.0 mg/mL) added to each well and incubated for 3 h at 37 °C. Subsequently, the MTT solution was removed and replaced with 100 μL isopropyl alcohol. The plates were then wrapped in aluminium foil and incubated for 2 h at 37 °C in order to extract formazan from the cells. Extracted formazan salt was quantified spectrophotometrically at 570 nm using Synergy™ HT multimode microplate reader (BioTek Instruments Incorporated). The absorbance of isopropyl alcohol (100 μL) was used as blank. The reduction of cell viability in treated cells was compared to negative control (cells incubated with DMEM/F-12) and expressed as a percentage.
(§4) Data acceptance criteria, calculation steps, interpretation and prediction model was done using the ECVAM Skin irritation Validation Study as contained in Standard Operating Procedure of Validation of the EpiSkin™ Test Method ^15 min–42 h for the prediction of acute skin irritation of chemicals. This was chosen because the model, as well as the cell viability assay method (MTT) has been accepted by intergovernmental agencies as being able to distinguish between irritants and non-irritants. However, we modified drug exposure time to reflect respiratory route of administration (15–60 min). […] Test compounds with mean relative viability values of 50% and below were considered irritant (I); those above 50% were considered non-irritant (NI) according to the ECVAM protocol.

[2] = as above; assay type: cell-based, Human; details: human, Calu-3 cells, 60 min incubation, MTT, relative to negative control, n = 4, read-out: Calu-3 %Viability ± SD; for viability at 60 min, 0.2 % w/v: 0.2% w/v test solution; for viability at 60 min, 1 % w/v: 1.0% w/v test solution
Description: as §1, §2, §3, §4

eye = system: eye; design: method as in PMID 12140180; details: ECETOC eye irritation data bank, ref [12], cited from earlier work; for European Union Irritation Class: Non-Irritating / European Union Irritation Class: R41 Risk of Serious Damage to Eye: tick = compound belongs to this class
[3] = 0.2% w/v test solution, 60 min exposure
[4] = 1.0% w/v test solution, 60 min exposure

Compound	Log p Octanol–Water [1]	Calu-3 model prediction (irritant if viability 50% and below) compared with European Union class (Calu-3 cells; [3])	Calu-3 %Viability ± SD (Calu-3 cells; 0.2% w/v test solution) [%]	Calu-3 model prediction (irritant if viability 50% and below) compared with European Union class (Calu-3 cells; [4])	viability at 60 min, 0.2 % w/v [2] [%]	viability at 60 min, 1 % w/v [2] [%]	European Union Irritation Class: Non-Irritating (eye)	European Union Class (eye; as listed in Table 2)	European Union Class (eye; as listed in Table 3)	European Union Irritation Class: R41 Risk of Serious Damage to Eye (eye)	Calu-3 %Viability ± SD (Calu-3 cells; 1.0% w/v test solution) [%]	Calu-3 cells killed (Calu-3 cells; 0.2% w/v, 60 min exposure)	Calu-3 %Viability ± SD (Calu-3 cells; 1.0% w/v test solution, listed as sodium hydroxide)
CCCC(C)CO (stereo not shown) [2-Methyl-1-pentanol]	1.75	correctly predicted	95.0 ± 13.1	false positive	95.3 ± 13.1	2.9 ± 0.2	√	–	–	–	–	–	–
Nc1ccc(F)cc1 [4-Fluoroaniline]	–	false negatives	–	false negatives	115 ± 5.9	75.6 ± 10.9	–	R41	R41	√	–	–	–
CCO [Anhydrous ethanol]	–	correctly predicted	99.1 ± 3.9	–	–	–	√	–	–	–	90.3 ± 8.0	–	–
OC1CCCCC1 [Cyclohexanol]	1.23	false negatives	89.9 ± 14.3	false negatives	–	–	–	R41	R41	√	78.7 ± 11.7	–	–
OCC(O)CO [Glycerol]	–	correctly predicted	–	–	85.6 ± 8.7	86.5 ± 7	√	–	–	–	–	–	–
c1c[nH]cn1 [Imidazole]	–	–	–	–	–	–	–	R41	R41	–	–	–	–
[Na+].[OH-] [Sodium hydroxide]	0	–	4.6 ± 0.4	correctly predicted	–	–	–	R41	R41	√	14.9 ± 1.2	about 95%	less than 17%
O=C([O-])C(=O)[O-].[Na+].[Na+] [Sodium oxalate]	–	false negative	65.4 ± 4.0	false negatives	–	–	–	R41	R41	√	64.5 ± 11.5	–	–
Cc1ccccc1 [Toluene]	–	–	–	–	85.7 ± 13	110 ± 6.6	√	–	–	–	–	–	–
PEG 400	−1.21	correctly predicted	91.5 ± 4.6	–	–	–	√	–	–	–	92.2 ± 15.9	–	–
PEG 600	−1.21	correctly predicted	85.9 ± 13.4	–	–	–	√	–	–	–	81.7 ± 10.8	–	–
